Assay results from patent US6814972B2, “Composition for prevention and/or treatment of vascular diseases, comprising propionyl L-carnitine and coenzyme Q10” (priority 2000, dated 2004).
“Also recorded” adds a separate entry of the source.

Key:
[1] = system: papillary muscle of rabbit heart subjected to hypoxia; assay: Myocardial anti-anoxic activity test (ATP in hypoxic papillary muscle); type: in vivo; details: for ATP concentrations, after hypoxia / ATP concentrations, before hypoxia: daily i.v. for three days (carnitines 100 mg/kg, combination 5 x 25 mg/kg, coenzyme Q10 50 mg/kg); for ATP concentrations, after hypoxia: after a 90 min anoxia period; for ATP concentrations, before hypoxia: papillary muscle under oxygen perfusion for 90 min; for preservation of ATP concentrations in papillary muscle (in words): summary of Table 4
Source text: This test was used to assess the ability of propionyl L-carnitine to protect the myocardium against the loss of ATP induced by anoxia and to preserve energy capacity even in these conditions.
An attempt was therefore made to establish whether prior treatment with propionyl L-carnitine, L-carnitine, carnitine combination or coenzyme Q10 alone or in combination with propionyl L-carnitine or with the other preparations was capable of preserving normal ATP concentrations in the hypoxic myocardium.
After three days of treatment, all the animals were sacrificed. Sections of papillary muscle measuring 1 mm in diameter and 4-5 mm in thickness were isolated. These samples of papillary muscle were perfused in a thermostatic bath with a saturated solution of 100% O2. The hypoxia was then produced by introducing 100% N2 in the bath in place of O2. The ATP concentrations in papillary muscle were measured using the method described by Strehler (Strehler B. L., Methods in Enzymology, 111, N.Y. Acad. Press, 879, 1957). The analysis was done on tissue samples maintained under oxygen perfusion for 90 min and after a 90 min anoxia period.

[2] = system: mice administered scopolamine; assay: Learning test (water maze, scopolamine-treated mice); type: in vivo, mouse; details: for Latency period, administration (per os, 3 days): oral for three consecutive days, carnitines 300 mg/kg, coenzyme Q10 20 mg/kg; for Latency period, administration (per os, 3 days) / Latency period, administration (I.P.): scopolamine 3 mg/kg i.p.; for Latency period, administration (I.P.): single intraperitoneal dose one hour before test, carnitines 100 mg/kg, coenzyme Q10 50 mg/kg; for activity in the learning test (in words): summary of Table 5
Procedure: These tests were performed in mice using the water maze procedure as described by Morris (Morris R., J. Neurosci. Meth., 11:47, 1984) and modified by Lin (Lin Y., Acta Pharmacol. Sin., 19:413, 1998). The procedure consists in placing, in a maze situated in a tank containing water (80 cm×50 cm×20 cm) 10 cm deep, mice of both sexes weighing approximately 20 g each, which, after a suitable period of training in the task of finding their way back to the final platform and after selecting those that took less than 20 min to do so, were divided into various groups.
Both intraperitoneal and oral administration were carried out one hour prior to the start of the test. Half an hour before the start all the animals were administered scopolamine intraperitoneally at the dose of 3 mg/kg. As is known, scopolamine induces abnormalities of spatial orientation and prolongs latency time in finding the way to reach the platform.
After the test the latency time to reach the platform was calculated for each animal.

[3] = system: vascular thrombosis of the rat tail induced by K-carrageenin and endothelin-1; assay: Experimental thrombotic vascular disease test (K-carrageenin + endothelin-1, rat tail); type: in vivo; details: for % inhibition of thrombosis after 2 h: 2 h after K-carrageenin; for % inhibition of thrombosis after 24 h: 24 h after K-carrageenin; for protective effect against the onset or severity of the vasculopathy lesions induced (in words): summary of Tables 1 and 2
Procedure: The method used in these tests was that described by Bekemeier (Bekemeier H., Agents and Actions, 16:446, 1985) modified by Bertelli (Bertelli A., Drugs Exptl. Clin. Res., 19:7, 1993) which consists in injecting K-carrageenin (0.5 mg/kg carrageenin, Sigma Chemical St. Louis Mo., USA) into the dorsal artery of the rat tail and, immediately prior to the K-carrageenin injection, 500 pmol/kg of endothelin-1 (Peninsula Laboratories, Belmont Calif., USA) by intravenous injection. With this method, as early as the second hour after injection of K-carrageenin, vascular thrombosis developed which could be estimated by measuring the length of the infarcted portion of the tail, the length of the entire tail and the ratio between the two (% infarcted tail).
The phenomenon was assessed two and twenty-four hours after injection of K-carrageenin. […]

[4] = system: ischaemic area caused by occlusion of middle cerebral artery (MCA); assay: Experimental cerebral ischaemia test (endothelin-1 occlusion of middle cerebral artery); type: in vivo, rat; details: for Extent of cerebral ischaemia due to occlusion of the MCA (% reduction in volume compared to controls): intravenous, five minutes after endothelin injection, carnitines 100 mg/kg, coenzyme Q10 50 mg/kg, evaluated three days later; for ability to reduce the extent of the ischaemia induced by occlusion of the MCA (in words): summary of Table 3
Procedure: With this test, the ischaemic area caused by occlusion of middle cerebral artery (MCA) was evaluated using the method described by Scharkey (Scharkey Y., Nature, 371:336, 1994), performed by injecting endothelin-1 (120 pmol in […]) in 5 minutes into anaesthetised rats with a microcannula placed stereotactically in the piriform cortex at the level of the middle cerebral artery. With this method, occlusion of the middle cerebral artery is induced and the resulting ischaemic area can be visualised three days later with transcardiac perfusion of a paraformaldehyde solution (4% in PBS). After extracting the cerebral mass, the latter was placed for twenty-four hours in a fixative containing 10% sucrose, and cryostat sections ([…]) fixed with resyl violet were examined under the optical microscope. The volume of the infarcted area was calculated according to the method described by Park (Park C. K., Ann. Neurol., 20:150, 1989).

Sprague-Dawley male rats = assay: Toxicology test, single oral administration of high doses; type: in vivo; details: propionyl L-carnitine 2 g/kg, coenzyme Q10 0.2 g/kg, or the same amounts in combination
Source text: Their use in combination also produces no damaging toxicological effects.

[5] = intravenous administration, carnitines 50 mg/kg (combination 5 x 10 mg/kg), coenzyme Q10 20 mg/kg
[6] = oral administration for four days prior to the test, carnitines 300 mg/kg (combination 5 x 75 mg/kg), coenzyme Q10 100 mg/kg

Structure (SMILES)	ATP concentrations, after hypoxia [1]	ATP concentrations, before hypoxia [1]	preservation of ATP concentrations in papillary muscle (in words) [1]	Latency period, administration (per os, 3 days) [2]	Latency period, administration (I.P.) [2]	% inhibition of thrombosis after 2 h [3, 5]	% inhibition of thrombosis after 24 h [3, 5]	% inhibition of thrombosis after 2 h [3, 6]	% inhibition of thrombosis after 24 h [3, 6]	protective effect against the onset or severity of the vasculopathy lesions induced (in words) [3]	Extent of cerebral ischaemia due to occlusion of the MCA (% reduction in volume compared to controls) [4]	activity in the learning test (in words) [2]	ability to reduce the extent of the ischaemia induced by occlusion of the MCA (in words) [4]	toxic effects or signs of intolerance (Sprague-Dawley male rats)
COC1=C(OC)C(=O)C(C/C=C(\C)CC/C=C(\C)CC/C=C(\C)CC/C=C(\C)CC/C=C(\C)CC/C=C(\C)CC/C=C(\C)CC/C=C(\C)CC/C=C(\C)CCC=C(C)C)=C(C)C1=O [Coenzyme Q10, coenzyme Q10]	0.64 ± 0.068 µmol/g tissue	1.65 ± 0.7 µmol/g tissue	at least partially maintaining the ATP concentrations	31 ± 12 s	31 ± 18 s	11.7 ± 0.9%	14.5 ± 1.3%	13.8 ± 1.7%	12.5 ± 1.7%	poorly effective	22.2 ± 2.9%	–	–	–
C[N+](C)(C)C[C@H](O)CC(=O)[O-] [L-carnitine]	0.5 ± 0.045 µmol/g tissue	1.55 ± 0.8 µmol/g tissue	Much more limited	39 ± 21 s	40 ± 20 s	9.5 ± 0.4%	11.5 ± 0.9%	8.5 ± 0.5%	9.2 ± 1.2%	ineffective	10.5 ± 0.77%	inactive	no significant protective effect; also recorded: much less pronounced	–
CCC(=O)O[C@H](CC(=O)[O-])C[N+](C)(C)C [Propionyl L-carnitine, propionyl L-carnitine]	0.64 ± 0.055 µmol/g tissue	1.58 ± 0.64 µmol/g tissue	at least partially maintaining the ATP concentrations	30 ± 16 s	32 ± 12 s	16.25 ± 0.7%	26.45 ± 1.9%	14.5 ± 0.7%	30.5 ± 3.3%	protective effect	30.3 ± 3.6%	–	good ability to reduce the extent of the ischaemia	failed to reveal any toxic effects or signs of intolerance
CC(=O)O[C@H](CC(=O)[O-])C[N+](C)(C)C [Acetyl L-carnitine, acetyl L-carnitine]	0.54 ± 0.075 µmol/g tissue	1.58 ± 0.98 µmol/g tissue	–	–	–	8.8 ± 0.7%	10.6 ± 0.8%	9.2 ± 0.8%	11.5 ± 1.5%	ineffective	15.8 ± 1.4%	only poor activity	no significant protective effect	–
